≈ marks a conversion by molar mass, not a printed value.
These compounds were tested on S. pneumoniae ATCC 49619 (assay: Minimal inhibitory concentration (MIC) by microdilution method (CLSI M7-A7)). Conditions: Streptococcus pneumoniae, ATCC49619, cation-adjusted Mueller-Hinton Broth supplemented with 3% (v/v) lysed horse blood.
Format: cell-based, Streptococcus pneumoniae
Procedure: Minimal inhibitory concentrations (MICs; mg/l) were determined in cation-adjusted Mueller-Hinton Broth (supplemented with 3% (v/v) lysed horse blood for testing Streptococcus pneumoniae) by a microdilution method following the description given in “Methods for Dilution Antimicrobial Susceptibility Tests for Bacteria that Grow Aerobically”, Approved standard, 7th ed., Clinical and Laboratory Standards Institute (CLSI) Document M7-A7, Wayne, Pa., USA, 2006.

| Structure (SMILES) | MIC |
| --- | --- |
| CCNC(=O)Nc1cc2cc(-c3cccc(CN)c3)cc(C)c2cn1 [Example 26, 1-[6-(3-(aminomethyl)-phenyl)-8-methyl-isoquinolin-3-yl]-3-ethyl-urea] | 0.5 µg/mL (≈ 1.5 µM) |
| CCNC(=O)Nc1cc2c(-c3ccccc3)cccc2cn1 [Example 43, 1-ethyl-3-(5-phenyl-isoquinolin-3-yl)-urea] | 8 µg/mL (≈ 27.5 µM) |
| CCNC(=O)Nc1cc2cc(-c3cccnc3F)cc(C)c2cn1 [Example 100, 1-ethyl-3-[6-(2-fluoro-pyridin-3-yl)-8-methyl-isoquinolin-3-yl]-urea] | 2 µg/mL (≈ 6.17 µM) |
| CCNC(=O)Nc1cc2c(-c3ccncc3)ccc(C)c2cn1 [Example 61, 1-ethyl-3-(8-methyl-5-pyridin-4-yl-isoquinolin-3-yl)-urea] | 1 µg/mL (≈ 3.26 µM) |
| CCNC(=O)Nc1cc2c(-c3ccnc(F)c3)ccc(C)c2cn1 [Example 41, 1-ethyl-3-[5-(2-fluoro-pyridin-4-yl)-8-methyl-isoquinolin-3-yl]-urea] | 2 µg/mL (≈ 6.17 µM) |
| CCNC(=O)Nc1cc2cc(-c3cncc(F)c3)cc(C)c2cn1 [Example 102, 1-ethyl-3-[6-(5-fluoro-pyridin-3-yl)-8-methyl-isoquinolin-3-yl]-urea] | 2 µg/mL (≈ 6.17 µM) |
| CCNC(=O)Nc1cc2c(-c3ccc(CO)cc3)ccc(C)c2cn1 [Example 34, 1-ethyl-3-[5-(4-hydroxymethyl-phenyl)-8-methyl-isoquinolin-3-yl]-urea] | 2 µg/mL (≈ 5.96 µM) |
| CCNC(=O)Nc1cc2cc(-c3ccc(CO)cc3)cc(C)c2cn1 [Example 15, 1-ethyl-3-[6-(4-hydroxymethyl-phenyl)-8-methyl-isoquinolin-3-yl]-urea] | 0.5 µg/mL (≈ 1.49 µM) |
| CCNC(=O)Nc1cc2c(-c3cncc(C)c3)ccc(C)c2cn1 [Example 10, 1-ethyl-3-[8-methyl-5-(5-methyl-pyridin-3-yl)-isoquinolin-3-yl]-urea] | 2 µg/mL (≈ 6.24 µM) |
| CCNC(=O)Nc1cc2cc(NC(=O)c3cccc(C(=O)OC)c3)cc(C)c2cn1 [Example 194, N-[3-(3-ethyl-ureido)-8-methyl-isoquinolin-6-yl]isophthalamic acid methyl ester] | 4 µg/mL (≈ 9.84 µM) |
| CCNC(=O)Nc1cc2cccc(Nc3ccc(CC(=O)O)cc3)c2cn1 [Example 205, {4-[3-(3-ethyl-ureido)-isoquinolin-8-ylamino]phenyl}-acetic acid] | 4 µg/mL (≈ 11 µM) |
| CCNC(=O)Nc1cc2cc(NCc3cccc(C(=O)O)c3)cc(C)c2cn1.Cl [Example 128, 3-{[3-(3-ethyl-ureido)-8-methyl-isoquinolin-6-ylamino]-methyl}-benzoic acid hydrochloride] | 8 µg/mL |
| CCNC(=O)Nc1cc2cccc(Nc3ccc(C(=O)N(C)C)cc3)c2cn1.Cl [Example 203, 4-[3-(3-ethyl-ureido)-isoquinolin-8-ylamino]-N,N-dimethyl-benzamide hydrochloride] | 2 µg/mL |
| CCNC(=O)Nc1cc2cc(-c3ccc(CC#N)cc3)cc(C)c2cn1 [Example 92, 1-[6-(4-(cyanomethyl)-phenyl)-8-methyl-isoquinolin-3-yl]-3-ethyl-urea] | 0.25 µg/mL (≈ 0.726 µM) |
| CCNC(=O)Nc1cc2cccc(CNc3cc(C)nn3C)c2cn1 [Example 191, 1-{8-[(2,5-dimethyl-2H-pyrazol-3-ylamino)-methyl]-isoquinolin-3-yl}-3-ethyl-urea] | 8 µg/mL (≈ 23.6 µM) |
| CCNC(=O)Nc1cc2cccc(NC(=O)c3cnn[nH]3)c2cn1.Cl [Example 183, 3H-[1,2,3]triazole-4-carboxylic acid [3-(3-ethyl-ureido)-isoquinolin-8-yl]-amide hydrochloride] | 4 µg/mL |
| CCNC(=O)Nc1cc2cccc(Nc3ccnc(OC)c3)c2cn1 [Example 180, 1-ethyl-3-[8-(2-methoxy-pyridin-4-ylamino)-isoquinolin-3-yl]-urea] | 4 µg/mL (≈ 11.9 µM) |
| CCNC(=O)Nc1cc2cccc(NCc3cccnc3)c2cn1 [Example 71, 1-ethyl-3-{8-[(pyridin-3-ylmethyl)-amino]-isoquinolin-3-yl}-urea] | 16 µg/mL (≈ 49.8 µM) |
| CCNC(=O)Nc1cc2cccc(Nc3ccn4ccnc4c3)c2cn1 [Example 150, 1-ethyl-3-[8-(imidazo[1,2-a]pyridin-7-ylamino)-isoquinolin-3-yl]-urea] | 4 µg/mL (≈ 11.5 µM) |
| CCNC(=O)Nc1cc2cc(NCc3ccc4ccn(C)c4c3)cc(C)c2cn1.Cl [Example 135, 1-ethyl-3-{8-methyl-6-[((1-methyl-1H-indol-6-yl)methyl)-amino]-isoquinolin-3-yl}-urea hydrochloride] | 16 µg/mL |
| CCNC(=O)Nc1cc2cc(-c3cccc(C(C)=O)c3)cc(C)c2cn1 [Example 29, 1-[6-(3-acetyl-phenyl)-8-methyl-isoquinolin-3-yl]-3-ethyl-urea] | 0.5 µg/mL (≈ 1.44 µM) |
| CCNC(=O)Nc1cc2cc(-c3ccc(F)nc3)cc(C)c2cn1 [Example 99, 1-ethyl-3-[6-(6-fluoro-pyridin-3-yl)-8-methyl-isoquinolin-3-yl]-urea] | 2 µg/mL (≈ 6.17 µM) |
| CCNC(=O)Nc1cc2cc(-c3cscc3C)cc(C)c2cn1 [Example 80, 1-ethyl-3-[8-methyl-6-(4-methyl-thiophen-3-yl)-isoquinolin-3-yl]-urea] | 16 µg/mL (≈ 49.2 µM) |
| CCNC(=O)Nc1cc2cc(-c3cccnc3)cc(C)c2cn1 [Example 16, 1-ethyl-3-(8-methyl-6-pyridin-3-yl-isoquinolin-3-yl)-urea] | 2 µg/mL (≈ 6.53 µM) |
| CCNC(=O)Nc1cc2cccc(Nc3cccc(CC(=O)NCc4ccccc4)c3)c2cn1.Cl [Example 210, N-benzyl-2-{3-[3-(3-ethyl-ureido)-isoquinolin-8-ylamino]phenyl}-acetamide hydrochloride] | 8 µg/mL |
| CCNC(=O)Nc1cc2cccc(Nc3cccc(OC)c3)c2cn1 [Example 168, 1-ethyl-3-[8-(3-methoxy-phenylamino)-isoquinolin-3-yl]-urea] | 0.5 µg/mL (≈ 1.49 µM) |
| CCNC(=O)Nc1cc2cc(-c3cccc(C#N)c3)cc(C)c2cn1 [Example 107, 1-[6-(3-cyano-phenyl)-8-methyl-isoquinolin-3-yl]-3-ethyl-urea] | 1 µg/mL (≈ 3.03 µM) |
| CCNC(=O)Nc1cc2c(F)ccc(NCc3ccccc3)c2cn1 [Example 56, 1-(8-benzylamino-5-fluoro-isoquinolin-3-yl)-3-ethyl-urea] | 8 µg/mL (≈ 23.6 µM) |
| CCNC(=O)Nc1cc2cc(-c3cccc(OC)c3)cc(C)c2cn1 [Example 76, 1-ethyl-3-[6-(3-methoxy-phenyl)-8-methyl-isoquinolin-3-yl]-urea] | 1 µg/mL (≈ 2.98 µM) |
| Cc1ccc(-c2ccncc2)c2cc(NC(=O)NC3CC3)ncc12 [Example 139, 1-cyclopropyl-3-(8-methyl-5-pyridin-4-yl-isoquinolin-3-yl)-urea] | 4 µg/mL (≈ 12.6 µM) |

More lines, now with the values ahead:

| MIC | Structure (SMILES) |
| --- | --- |
| 4 µg/mL | CCNC(=O)Nc1cc2cccc(COc3cccc(O)c3)c2cn1.Cl [Example 213, 1-ethyl-3-[8-(3-hydroxy-phenoxymethyl)-isoquinolin-3-yl]-urea hydrochloride] |
| 4 µg/mL (≈ 11.8 µM) | CCNC(=O)Nc1cc2cccc(Cn3ccnc3C(=O)O)c2cn1 [Example 294, 1-[3-(3-ethyl-ureido)-isoquinolin-8-ylmethyl]-1H-imidazole-2-carboxylic acid] |
| 8 µg/mL | CCNC(=O)Nc1cc2cccc(CNc3ccc(OC)nc3)c2cn1.Cl [Example 302, 1-ethyl-3-{8-[(6-methoxy-pyridin-3-ylamino)-methyl]-isoquinolin-3-yl}-urea hydrochloride] |
| 0.25 µg/mL (≈ 0.6 µM) | CCNC(=O)Nc1cc2c(F)c(-c3cncc(C)c3)cc(Nc3cccnc3)c2cn1 [Example 235, 1-ethyl-3-[5-fluoro-6-(5-methyl-pyridin-3-yl)-8-(pyridin-3-ylamino)-isoquinolin-3-yl]urea] |
| 4 µg/mL | CCNC(=O)Nc1cc2cccc(CNc3ccccn3)c2cn1.Cl [Example 263, 1-ethyl-3-[8-(pyridin-2-ylaminomethyl)-isoquinolin-3-yl]-urea hydrochloride] |
| 2 µg/mL (≈ 4.91 µM) | CCNC(=O)Nc1cc2cccc(Nc3ccc(OC)c(C(=O)N(C)C)c3)c2cn1 [Example 244, 5-[3-(3-ethyl-ureido)-isoquinolin-8-ylamino]-2-methoxy-N,N-dimethyl-benzamide] |
| 8 µg/mL (≈ 24.4 µM) | CCNC(=O)Nc1cc2c(-c3ccncn3)ccc(Cl)c2cn1 [Example 286, 1-(8-chloro-5-pyrimidin-4-yl-isoquinolin-3-yl)-3-ethyl-urea] |
| 0.5 µg/mL (≈ 1.1 µM) | CCNC(=O)Nc1cc2c(-c3ccc(CO)cc3)ccc(Nc3cccc(C(=O)O)c3)c2cn1 [Example 249, 3-[3-(3-ethyl-ureido)-5-(4-hydroxymethyl-phenyl)-isoquinolin-8-ylamino]-benzoic acid] |
| 2 µg/mL | CCNC(=O)Nc1cc2cccc(Nc3ccc(C(N)=O)cc3)c2cn1.Cl [Example 252, 4-[3-(3-ethyl-ureido)-isoquinolin-8-ylamino]-benzamide hydrochloride] |
| 1 µg/mL (≈ 2.51 µM) | CCNC(=O)Nc1cc2c(-c3ccncc3)ccc(Nc3ccc(C)nc3)c2cn1 [Example 218, 1-ethyl-3-[8-(6-methyl-pyridin-3-ylamino)-5-pyridin-4-yl-isoquinolin-3-yl]-urea] |
| 8 µg/mL | CCNC(=O)Nc1cc2cccc(COc3ccccn3)c2cn1.Cl [Example 261, 1-ethyl-3-[8-(pyridin-2-yloxymethyl)-isoquinolin-3-yl]-urea hydrochloride] |
| 0.5 µg/mL (≈ 1.21 µM) | CCNC(=O)Nc1cc2c(-c3cc(C)nc(C)c3)ccc(Nc3cccnc3)c2cn1 [Example 231, 1-[5-(2,6-dimethyl-pyridin-4-yl)-8-(pyridin-3-ylamino)-isoquinolin-3-yl]-3-ethyl-urea] |
| 4 µg/mL (≈ 12.9 µM) | CCNC(=O)Nc1cc2cccc(Cn3ccnc3C)c2cn1 [Example 297, 1-ethyl-3-[8-(2-methyl-imidazol-1-ylmethyl)-isoquinolin-3-yl]-urea] |
| 0.5 µg/mL (≈ 1.3 µM) | CCNC(=O)Nc1cc2c(-c3cccnc3)ccc(Nc3cccnc3)c2cn1 [Example 224, 1-ethyl-3-[5-pyridin-3-yl-8-(pyridin-3-ylamino)-isoquinolin-3-yl]-urea] |
| 1 µg/mL (≈ 2.59 µM) | CCNC(=O)Nc1cc2c(-c3ccncc3)ccc(Oc3cccnc3)c2cn1 [Example 222, 1-ethyl-3-[5-pyridin-4-yl-8-(pyridin-3-yloxy)-isoquinolin-3-yl]-urea] |

— patent US20130096119A1, “Isoquinolin-3-Ylurea Derivatives” (priority 2010, published 2013)
